Reference: patent publication US8653304B2, “2,3-dihydro-1H-indene-2-yl urea derivative and pharmaceutical application of same” (Toray Industries, Inc., priority 2009, dated 2014)

Key:
TNFα production = assay: Cytokine production suppressing activity using human whole blood (LPS stimulation); type: cell-based; details: LPS 200 ng/mL, 37° C., 5 hours
Protocol: Using human whole blood, the inhibitory action of Compound (I) on the TNFα production by LPS stimulation was studied by a method partially modified from the method described in Journal of Medicinal Chemistry (2003, Vol. 46, pp. 4676-4686).
A solution of each test compound in 100% DMSO and human blood were mixed in a 96-well flat-bottom plate. Thereafter, LPS (Final Concentration: 200 ng/mL) was added, and the resulting mixture was allowed to react at 37° C. for 5 hours (the final concentration of DMSO was 0.2%). After the reaction, the resultant was centrifuged for 20 minutes at room temperature, and the supernatant was collected. For the measurement of the TNFα amount in the supernatant, a human cytokine kit (CIS bio international) was used. As a comparative control compound, Comparative Compound 2 was used.

HepG2 cells = assay: Ability to induce drug-induced phospholipidosis (HepG2, HCS Lipid TOX Green); type: cell-based, human; details: 48 hours
Protocol: Whether an ability to induce phospholipidosis by Compound (I) was observed or not was studied. The evaluation of Compound 46b described in the Examples was carried out by a method partially modified from the method described in Experimental and Toxicologic Pathology (2007, Vol. 58, pp. 375-382).
Each test compound and HCS Lipid TOX Green Phospholipidosis Detection Regent (Invitrogen), which is a phospholipid staining solution, were mixed with HepG2 cells, which are a cell line derived from human hepatoma, and the cells were cultured in the presence of 5% CO2 at 37° C. for 48 hours. The culture supernatant after the culturing was removed, and Hoechest 33258 (Invitrogen), which is a nucleic acid staining solution, was added, followed by allowing the resulting mixture to react in the dark at room temperature for 20 minutes. The resultant was washed with PBS solution. Then the fluorescence intensity was measured with a microplate analyzer (Fusion-α, Packard), and FLA (a relative value when taking amiodarone hydrochloride (10 μM) as 1, the amiodarone hydrochloride being a positive control substance) was calculated according to the following equations. The case where FLA was less than 1 was judged as negative, and the case where FLA was not less than 1 was judged as positive. […]

[1] = test system: hyperalgesia in carrageenin paw edema pain model; assay: Hyperalgesia in inflammatory pain model (carrageenin paw edema pain model); type: in vivo; details: SD rat, oral 100 mg/kg 30 minutes before carrageenin, measured 90 minutes after carrageenin; FIG. 1
Excerpt: The action of Compound (I) on hyperalgesia in pain models was studied. As the pain models, models partially modified from an inflammatory pain model (a carrageenin paw edema pain model) and neuropathic pain models (Bennett model and Chung model) described in documents (Anesth. Analg., 2009, Vol. 108, pp. 1680-1687; Pain, 1988, Vol. 33, pp. 87-107; and Pain, 1992, Vol. 50, pp. 355-363) were used.
To the footpad of the left hind limb of each Crl:CD (SD) rat (male, 6-week old, Charles River Laboratories Japan, Inc.), an 1 w/v % suspension of carrageenin (Zushi Kagaku Laboratory, Inc.) in physiological saline was subcutaneously administered at 0.1 mL/body to produce the carrageenin paw edema pain model. Ninety minutes after the administration of the 1 w/v % suspension of carrageenin in physiological saline, the pain threshold (mmHg) of the footpad of the left hind limb was measured using Analgesy Meter (TK-201, Unicom) wherein the stimulating pressure was set so as to rise from 0 mmHg to 100 mmHg for 10 seconds. Each test compound was suspended in 0.5 w/v % methylcellulose (Wako Pure Chemical Industries, Ltd.), and the obtained solution was orally administered 30 minutes before the administration of the 1 w/v % suspension of carrageenin in physiological saline. […]

[2] = test system: colonic disorders in TNBS-induced colitis model; assay: Colonic disorders in TNBS-induced colitis model; type: in vivo; details: Wistar rat, oral 3 mg/kg once on TNBS day then twice a day for 4 days, colon 5 days after TNBS
Excerpt: The action of Compound (I) on colonic disorders in inflammatory bowel disease models was studied. As the inflammatory bowel disease models, models partially modified from a TNBS-induced colitis model and a DSS-induced chronic colitis model described in documents (Gastroenterology, 1989, Vol. 96, pp. 29-36 and Am. J. Physiol. Gastrointest. Liver Physiol., 2004, Vol. 287, pp. G115-124) were used.
To each Slc:Wistar rat (male, 12-week old, Japan SLC, Inc.), TNBS (Wako Pure Chemical Industries, Ltd.) dissolved in ethanol was rectally administered under anesthesia, and the TNBS solution was held in the rectum for 1 hour to produce the colitis model. These rats had been fasted from 2 days before the TNBS administration to the day of the TNBS administration. Five days after the TNBS administration, the colon was isolated from the each rat, and the macroscopic damage score (which is a total of adhesion score, diarrhea score and ulcer score) was recorded as an index of damage in the colon. The macroscopic damage score was calculated based on the scores of Dubigeon et al. (Eur. J. Pharmacol., 2001, Vol. 431, pp. 103-110) and the scores of Venkova et al. (J. Pharmacol. Exp. Ther., 2004, Vol. 308, pp. 206-213). […]

COc1c(NC(=O)N[C@@H]2Cc3ccccc3[C@@H]2O)cc(C(C)(C)C)cc1[C@@H](O)C(F)(F)F [Compound 46b, 1-(5-tert-butyl-2-methoxy-3-((R)-2,2,2-trifluoro-1-hydroxyethyl)phenyl)-3-((1S,2R)-1-hydroxy-2,3-dihydro-1H-indene-2-yl)urea]
IC50 (TNFα production): 508 nM | FLA value (relative to amiodarone hydrochloride 10 μM as 1) (HepG2 cells; concentration up to 10 μM): less than 1 | phospholipidosis judgement (HepG2 cells; up to 10 μM, FLA less than 1 = negative): negative | pain threshold (mmHg) compared to solvent-administered group [1]: significantly elevated | macroscopic damage score [2]: 3.3±0.7
